Values joined by “and” are separate entries in the source; they are usually repeats but may differ in a detail not shown here. Equal values may be shown once. Active and inactive are the calls of the source.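 Rule for the calls: active = compounds giving half or more protection of infected cells from virus-caused growth loss, again on retest; inactive = the rest.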 Where a SMILES comes first, the peptide text is derived from it.
System: CEM cells HIV-1 protection, formazan growth assay
Assay: NCI AIDS Antiviral Assay
Details: for IC50: measured here: growth of uninfected CEM cells
How it was run: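 Steps: treat uninfected and HIV-1-infected human CEM cells at five drug levels; quantify growth by soluble formazan; retest any compound reaching 50% protection; classify actives from the retest.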

SMILES	EC50	IC50	outcome
CC(=O)NC1=N/C(=C/c2cc([N+](=O)[O-])ccc2O)CN1C	> 200 µM	> 200 µM	–
Cc1ccc([P+](Cc2ccccc2)(c2ccccc2)c2ccccc2)cc1	> 200 µM	1.1 µM	–
CCC(C)C(NC(=O)CNC(=O)C(C)NC(=O)CNC(=O)C(NC(=O)C(NC(=O)C(CO)NC(=O)C(Cc1cnc[nH]1)NC(=O)C(N)CCCCN)C(C)CC)C(C)CC)C(=O)NC(CCCCN)C(=O)NC(CCCCN)C(=O)NC(CCCN=C(N)N)C(=O)NC(Cc1ccccc1)C(=O)NC(CC(C)C)C(=O)NC(CCC(N)=O)C(=O)O (stereo not drawn) (H-KHSIIGAGIKKRFLQ-OH; configuration not given here)	–	–	inactive
CCOCc1c(C)cc(C)c(C2C(C(=O)c3ccccc3)N3c4ccccc4C=CC3C2(C#N)C(=O)OCC)c1C (stereo not drawn)	> 200 µM	33.9 µM	–
CCCc1c(-c2ccc(OC)cc2)c(=O)oc2cc(O)ccc12	> 200 µM	53.7 µM	–
O=[N+]([O-])c1ccc(/C=C/C=C/C=C/C=C/c2ccc(S(=O)(=O)F)cc2Cl)c(Cl)c1	> 200 µM	186 µM	–
Cc1ccc2c(c1)C(=O)N1CCC[C@H]1C=N2	> 200 µM	3.63 µM	–
Cc1ccc(NP2(=O)N(Cc3ccc(Cl)cc3)CCCN2Cc2ccc(Cl)cc2)cc1	> 200 µM	11 µM	–
Cc1c2cccc1CSCc1cccc(c1C)CSC2	> 123 µM	> 123 µM	–
CN=C(NCCCN1CCOCC1)c1ccc(NC(=O)c2ccc(C(=O)Nc3ccc(C(=NC)NCCCN4CCOCC4)cc3)cc2)cc1	> 200 µM	120 µM	–
CC(C)=COS(=O)(=O)C(F)(F)F	> 200 µM	110 µM	–
CCC/C(=N/NC(=O)C(N)=O)C(CC)C(=O)CCC(=O)N(Cc1ccccc1)Cc1ccccc1 (stereo not drawn)	> 525 µM	> 525 µM	–
O=C(CC1(O)C(=O)Nc2ccc(Br)cc21)c1cccc([N+](=O)[O-])c1 (stereo not drawn)	> 174 µM	93.3 µM	–
O=C(O)CCCCCCCCCCOc1ccc(I)cc1	> 200 µM	28.2 µM	–
CC12SC3(C)SC(C)(S1)SC(C)(S2)S3	> 44.7 µM	33.1 µM	–
Nc1ncc(/C=C/CNC(=O)c2ccc[nH]2)[nH]1	> 1070 µM	155 µM	–
Cc1cc(N(CCC#N)S(=O)(=O)c2ccccc2)ccc1/C=C1N=C(/C=C/c2ccccc2)OC\1=O	–	–	inactive
CCCCN(CCCC)C1CCC(Nc2ccnc3cc(Cl)ccc23)CC1 (stereo not drawn)	> 200 µM	25.7 µM	–
COc1cc(C(Cc2ccnc3ccccc23)Cc2ccnc3ccccc23)ccc1N(C)C	> 16.2 µM	3.16 µM	–
Cc1cc(C(O)CCCc2ccccc2)cc(C)c1O (stereo not drawn)	> 251 µM	83.2 µM	–
O=C(O)C(CS)Nc1c2ccccc2nc2ccccc12 (stereo not drawn)	–	–	inactive
CC(C)(C)OC(=O)CN1CCNCCN(CC(=O)OC(C)(C)C)CCNCC1	> 200 µM	13.8 µM	–
COc1ccc2c(c1)CCC1C[C@@H]3C[C@]21C=CC3=O (stereo partly drawn)	> 182 µM	49 µM and > 28.2 µM	–
Cc1cccc(C2=NC(C)(C)C(C)(C)N=C2c2cccc(C)n2)n1	> 81.3 µM	> 81.3 µM	–
O=C(Nc1ccn(C2CC(O)C(CO)O2)c(=O)n1)c1ccccc1 (stereo not drawn)	> 200 µM	> 200 µM	–
O=C(N/N=C/c1ccc(Cl)cc1Cl)c1ccccc1SSc1ccccc1C(=O)N/N=C/c1ccc(Cl)cc1Cl	38.9 µM	178 µM	–
CC(C)OC(=O)[C@H]1ON2O[C@H](O[C@@H]3CCCC[C@H]3c3ccccc3)C([Si](C)(C)c3ccccc3)[C@H]3OC(=O)[C@@H]1C32 (stereo partly drawn)	> 200 µM	158 µM	–
CC(=O)CC(=O)NC=O	> 263 µM	> 263 µM	–

SMILES	EC50	IC50	outcome
C[n+]1c(-c2ccc(/C=N\NC(=O)c3ccc(C(=O)N/N=C/c4ccc(-c5cn6ccsc6[n+]5C)cc4)cc3)cc2)cn2ccsc21	> 50.1 µM	0.501 µM	–
O=CC[C@H]1CCc2ccccc2C12CCC(=O)CC2	> 74.1 µM	> 74.1 µM	–
CC1C2=C(C(=O)N1Cc1ccccc1)C(C1OC(COC(=O)c3ccccc3)C(OC(=O)c3ccccc3)C1OC(=O)c1ccccc1)C(=O)N(C)C2=O (stereo not drawn)	> 7.24 µM	> 7.24 µM	–
CCOC(=O)/C(=C\c1cccc(OC)c1)C(C)=O	> 525 µM	95.5 µM	–
COc1cc2c(cc1OC)C1c3ccccc3CN1CC2 (stereo not drawn)	> 200 µM	105 µM	–
COC(Cc1cc(C(O)(c2ccc(C(C)(C)C)cc2)c2cc(CC(OC)(c3cc(C(OC)(c4ccc(C(C)(C)C)cc4)c4ccc(C(C)(C)C)cc4)c(C)cc3C)c3cc(C(OC)(c4ccc(C(C)(C)C)cc4)c4ccc(C(C)(C)C)cc4)c(C)cc3C)c(C)cc2C)c(C)cc1C)(c1cc(C(OC)(c2ccc(C(C)(C)C)cc2)c2ccc(C(C)(C)C)cc2)c(C)cc1C)c1cc(C(OC)(c2ccc(C(C)(C)C)cc2)c2ccc(C(C)(C)C)cc2)c(C)cc1C	–	–	inactive
CC(C)SC(NC(=O)C1C(C)(C)CCC1(C)C)C(=O)O (stereo not drawn)	> 200 µM	> 200 µM	–
Nc1ncnc2c1ncn2C1CC(O)C(CO)O1 (stereo not drawn)	> 1000 µM	186 µM	–
COc1ccc2c(c1)CC[C@@H]1C2CC[C@]2(C)OC(=O)CCC12 (stereo partly drawn)	> 87.1 µM	12 µM	–
Cc1ccccc1[P+](Cc1ccccc1)(c1ccccc1)c1ccccc1C	> 200 µM	0.776 µM	–
CC1(CF)SCc2nc3ccccc3n21 (stereo not drawn)	> 200 µM	> 200 µM	–
COc1ccc(N2C(=O)C3c4[nH]c5ccccc5c4C4CCCCCCCCCC4C3C2=O)cc1 (stereo not drawn)	> 200 µM	> 200 µM	–
CSc1c(C(=O)Nc2ccccc2)c(N)n(N)c(=O)c1C#N	55 µM	> 200 µM	–
CCC(/C(=N\Nc1c(Cl)cc(Cl)cc1Cl)c1ccccc1)n1ccnc1C (stereo not drawn)	–	–	inactive
CC(C)NC(=O)OCc1c(COC(=O)NC(C)C)n(C)c2c1ccc1ccccc12	> 174 µM	0.0813 µM	–
CC(=O)CC(=O)CCCC(=O)Nc1ccc(Cl)cc1C	–	–	inactive
O=C(O)c1ccc(OCc2nc3cc(C(F)(F)F)ccc3nc2-c2ccccc2)cc1	> 200 µM	33.9 µM	–
N#CC1(Cc2ccccc2Cl)c2ccccc2C=CN1C(=O)c1ccccc1 (stereo not drawn)	–	–	inactive
CS(=O)(=O)O[C@H]1CN2C[C@@H](O)[C@@H](O)[C@H]2[C@H]1CO	> 200 µM	> 200 µM	–
CCOC(=O)/C(=C\c1cccc(OC)c1)[Se]c1ccccc1	> 14.5 µM	7.59 µM	–
C=C1CC(Cn2cc(Br)c(=O)[nH]c2=O)(c2ccc(Br)cc2)OC1=O (stereo not drawn)	> 20 µM	0.759 µM	–
O=S(=O)(Nc1ccc(NS(=O)(=O)c2ccccc2)c(N2N=N2)c1)c1ccccc1	> 200 µM	51.3 µM	–
CC(=O)Oc1cc(-c2oc3cc(OC(C)=O)c(C4OC(CO)C(O)C(O)C4O)c(OC(C)=O)c3c(=O)c2O)c(OC(C)=O)cc1O (stereo not drawn)	> 200 µM	> 200 µM	–
CCN(CCCl)c1cc(C(=O)Nc2cc(NC(=O)c3cc(N(CC)CCCl)c([N+](=O)[O-])cc3[N+](=O)[O-])cc(C(=O)NCCN(C)C)c2)c([N+](=O)[O-])cc1[N+](=O)[O-]	> 200 µM	126 µM	–
COc1c2c(c3c(c1CCC(=O)O)OC(C)(C)C=C3)OC(C)(C)C=C2	> 200 µM	138 µM	–
C=C(C)Cn1c(=O)c2c(ncn2C)n(C)c1=O	> 200 µM	> 200 µM	–
O=C(NCCCNCCN1C(=O)c2cccc3cc([N+](=O)[O-])cc(c23)C1=O)c1cc(-c2ccccc2)nc2ccccc12	> 200 µM	1.05 µM	–
